Assay results taken from patent US7517910B2, “Alkoxyphenylpropanoic acid derivatives” (Takeda Pharmaceutical Company Limited, priority 2004, dated 2009).
Where a name gives a salt, the structure may show the parent alone.

Biological target: T1, human GPR40 (Homo sapiens, UniProt O14842)
T1 construct: expressed in transfected cells; host or cells: CHO cell line stably expressing human GPR40
Assay: Determination of EC50 against human GPR40: change in intracellular calcium concentration by FLIPR in CHO cells stably expressing human GPR40
Type: cell-based
Settings: CHO cell line stably expressing human GPR40; intracellular calcium change measured by FLIPR (Fluo3-AM); EC50 from dose-response curve; read-out: EC50 (receptor function modulating action on GPR40)
Protocol: Determination of EC50 of the compound of the present invention against human GPR40
For determination of EC50, CHO cell line that stably expressed human GPR40 was used. Unless otherwise indicated, the CHO cell line was cultured using α-MEM medium (Invitrogen) containing 10% fetal bovine serum (Invitrogen).
The cells cultured to nearly confluent were rinsed with PBS (Invitrogen) on the previous day of the assay, peeled off with 0.05% Trypsin.EDTA solution (Invitrogen) and recovered by centrifugation. The number of the obtained cells was counted, and the cells were diluted such that 3×10^5 cells were contained per 1 mL of the medium, dispensed to a black welled 96-well plate (coster) by 100 μL per well and cultured overnight in a CO2 incubator. Various test compounds were added to the CHO cells thus prepared, and the changes in the intracellular calcium concentration were measured using FLIPR (Molecular Device). The below-mentioned pre-treatment was applied to measure changes in the intracellular calcium concentration by FLIPR.
First, an assay buffer for adding a fluorescence dye Fluo3-AM (DOJIN) to the cells, or for washing the cells immediately before FLIPR assay was prepared. To a solution of HBSS (Invitrogen, 1000 mL) added 1 M HEPES (pH 7.4, DOJIN, 20 mL) (hereinafter HBSS/HEPES solution) was added a solution (10 mL) obtained by dissolving probenecid (Sigma, 710 mg) in 1 N NaOH (5 mL), and adding and mixing an HBSS/HEPES solution (5 mL), and the resulting solution was used as an assay buffer. Next, Fluo3-AM (50 μg) was dissolved in dimethyl sulfoxide (Wako, 21 μL), and an equivalent amount of 20% pluronic acid (Molecular Probes) was added and mixed. The solution was added to the assay buffer (10.6 mL) supplemented with fetal bovine serum (105 μL) to give a fluorescence dye solution. The medium of the CHO cells inoculated to the black welled 96-well plate on the previous day of assay was removed, the fluorescence dye solution was immediately dispensed by 100 μL per well and the cells were cultured in a CO2 incubator for 1 hr to allow intake of the fluorescence dye by the cells. The cells after the culture were washed with the above-mentioned assay buffer and set on FLIPR. The test compound was diluted with dimethylsulfoxide in advance, dispensed to a polypropylene 96-well plate (sample plate) by 2 μL, and cryopreserved at −20° C. To the thawed sample plate was added an assay buffer containing 0.015% CHAPS (DOJIN) by 198 μL, and simultaneously set on FLIPR together with the cell plate. After the aforementioned pre-treatment, changes in the intracellular calcium concentration upon addition of various test compounds was measured by FLIPR. Based on the results, a dose-response curve of each test compound was formed and EC50 was calculated.

T1 sequence (O14842 whole entry): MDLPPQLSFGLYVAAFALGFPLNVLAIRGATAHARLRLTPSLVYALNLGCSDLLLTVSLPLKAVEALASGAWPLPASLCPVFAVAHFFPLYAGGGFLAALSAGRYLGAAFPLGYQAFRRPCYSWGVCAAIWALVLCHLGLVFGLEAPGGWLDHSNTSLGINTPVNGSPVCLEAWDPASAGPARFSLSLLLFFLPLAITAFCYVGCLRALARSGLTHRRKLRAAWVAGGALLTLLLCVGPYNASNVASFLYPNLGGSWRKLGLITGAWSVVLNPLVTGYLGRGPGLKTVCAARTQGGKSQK

Row | Structure (SMILES) | EC50 [nM]
1 | CC(C)(C)c1cc(COc2ccccc2)n(Cc2ccc(COc3ccc(CCC(=O)O)c(F)c3)cc2)n1 [Example 131, 3-{4-[(4-{[3-tert-butyl-5-(phenoxymethyl)-1H-pyrazol-1-yl]methyl}benzyl)oxy]-2-fluorophenyl}propanoic acid calcium salt] | < 100
2 | Cc1cc2ccccc2n1-c1cccc(COc2ccc(CCC(=O)O)cc2)c1 [Example 24, 3-(4-{[3-(2-methyl-1H-indol-1-yl)benzyl]oxy}phenyl)propanoic acid] | < 10
3 | CC(C)(C)c1cc(OCc2ccccc2)n(Cc2ccc(COc3ccc(CCC(=O)O)c(F)c3)cc2)n1 [Example 133, 3-{4-[(4-([5-(benzyloxy)-3-tert-butyl-1H-pyrazol-1-yl]methyl)benzyl)oxy]-2-fluorophenyl}propanoic acid calcium salt] | < 100
4 | O=C(O)CCc1ccc(OCc2ccc(Cn3c(-c4ccccc4)cc4ccccc43)cc2)cc1 [Example 45, 3-[4-({4-[(2-phenyl-1H-indol-1-yl)methyl]benzyl}oxy)phenyl]propanoic acid] | < 100
5 | CCOCCn1c(-c2ccccc2)c(-c2cccc(COc3ccc(CCC(=O)O)c(F)c3)c2)c2ccccc21 [Example 118, 3-[4-({3-[1-(2-ethoxyethyl)-2-phenyl-1H-indol-3-yl]benzyl}oxy)-2-fluorophenyl]propanoic acid] | < 100
6 | CC(C)COc1ccc(COc2ccc(CCC(=O)O)cc2)cc1Cn1c(-c2ccccc2)cc2ccccc21 [Example 60, 3-[4-({4-isobutoxy-3-[(2-phenyl-1H-indol-1-yl)methyl]benzyl)oxy)phenyl]propanoic acid] | < 100
7 | O=C(O)CCc1ccc(OCc2ccc(Cn3ccnc3-c3ccccc3)cc2)cc1 [Example 56, 3-[4-([4-[(2-phenyl-1H-imidazol-1-yl)methyl]benzyl]oxy)phenyl]propanoic acid] | < 1000
8 | O=C(O)CCc1ccc(OCc2ccccc2-c2csc3ccccc23)cc1 [Example 10, 3-(4-{[2-(1-benzothiophen-3-yl)benzyl]oxy}phenyl)propanoic acid] | < 1000
9 | CC(C)COc1ccc(COc2ccc(CCC(=O)O)cc2)cc1CN1c2ccccc2CCC1C (centres unmarked) [Example 111, 3-[4-({4-isobutoxy-3-[(2-methyl-3,4-dihydroquinolin-1 (2H)-yl)methyl]benzyl}oxy)phenyl]propanoic acid] | < 1000
10 | Cc1cccc(COc2cc(C(C)(C)C)nn2Cc2ccc(COc3ccc(CCC(=O)O)c(F)c3)cc2)n1 [Example 137, 3-(4-{[4-({3-tert-butyl-5-[(6-methylpyridin-2-yl)methoxy]-1H-pyrazol-1-yl}methyl)benzyl]oxy}-2-fluorophenyl)propanoic acid calcium salt] | < 100
11 | O=C(O)CCc1ccc(OCc2ccc(Cn3nc(-c4ccc(C(F)(F)F)cc4)cc3CCc3ccccc3)cc2)cc1 [Example 65, 3-(4-{[4-({5-(2-phenylethyl)-3-[4-(trifluoromethyl)phenyl]-1H-pyrazol-1-yl}methyl)benzyl]oxy}phenyl)propanoic acid] | < 1000

Second part, the molecule after the results:

Row | EC50 [nM] | Structure (SMILES)
12 | < 100 | O=C(O)CCc1ccc(OCc2cccc(-c3ccc4c(ccn4Cc4ccccc4)c3)c2)cc1 [Example 20, 3-(4-([3-(1-benzyl-1H-indol-5-yl)benzyl]oxy}phenyl)propanoic acid]
13 | < 100 | Cc1cc(-c2ccccc2)n(Cc2ccc(COc3ccc(CCC(=O)O)cc3)cc2)n1 [Example 112, 3-[4-([4-[(3-methyl-5-phenyl-1H-pyrazol-1-yl)methyl]benzyl}oxy)phenyl]propanoic acid]
14 | < 10 | CC1CCc2ccccc2N1c1cccc(COc2ccc(CCC(=O)O)cc2)c1 (centres unmarked) [Example 40, 3-(4-{[3-(2-methyl-3,4-dihydroquinolin-1 (2H)-yl)benzyl]oxy}phenyl)propanoic acid]
15 | < 100 | CC(C)(C)c1cc(-c2ccccc2)n(Cc2ccc(COc3ccc(CCC(=O)O)c(F)c3)cc2)n1 [Example 141, 3-[4-({4-[(3-tert-butyl-5-phenyl-1H-pyrazol-1-yl)methyl]benzyl)oxy)-2-fluorophenyl]propanoic acid]
16 | < 100 | O=C(O)CCc1ccc(OCc2cccc(N3CCOC(c4ccccc4)C3)c2)cc1 (centres unmarked) [Example 29, 3-(4-{[3-(2-phenylmorpholin-4-yl)benzyl]oxy}phenyl)propanoic acid]
17 | < 10 | Cc1sc(C)c(-c2cccc(COc3ccc(CCC(=O)O)cc3)c2)c1C [Example 4, 3-(4-([3-(2,4,5-trimethyl-3-thienyl)benzyl]oxy}phenyl)propanoic acid]
